Test results taken from PMC3927586, “Protein kinase C-delta inactivation inhibits the proliferation and survival of cancer stem cells in culture and in vivo” (BMC Cancer, 2014).

Legend:
recombinant PKCδ = target: T1, recombinant PKCδ (Homo sapiens, UniProt Q05655); assay: PKC kinase activity assay (Z-lyte), PKCδ; assay type: biochemical; details: in vitro kinase assay; read-out: PKCδ IC50
T1 construct: purchased Invitrogen
Method: (§1) Assays were carried out using recombinant PKCδ or PKCα, (Invitrogen) and the Z-lyte Kinase Assays (Invitrogen) with a “PKC-kinase-specific” peptide substrate. FRET interactions produce a change in fluorescence (ex455/ex520) upon phosphorylation. The kit was used according to the manufacturer’s instructions.

recombinant PKCα = target: T2, recombinant PKCα (Homo sapiens, UniProt P17252); assay: PKC kinase activity assay (Z-lyte), PKCα; assay type: biochemical; details: in vitro kinase assay; read-out: PKCα IC50
T2 construct: purchased Invitrogen
Method: as §1

PCSC cells = assay: Cytotoxicity (LDH release) in pancreatic cancer stem cells; assay type: cell-based, human
Method: (§2) LDH release was assessed by spectrophotometrically measuring the oxidation of NADH in both the cells and media. Cells were seeded in 24-well plates, and exposed to PKCδ inhibitors or vehicle. After different times of exposure, cytotoxicity was quantified by a standard measurement of LDH release with the use of the LDH assay kit (Roche Molecular Biochemicals) according to the manufacturer’s protocol. Briefly, total culture medium was cleared by centrifugation. For assay of released LDH, supernatants were collected. To assess total LDH in cells, Triton X-100 was added to vehicle (control) wells to release intracellular LDH. LDH assay reagent was added to lysates or supernatants and incubated for up to 30 min at room temperature in dark, the reaction was stopped, and the absorbance was measured at 490 nm. The percentage of LDH release was then calculated as the LDH in the supernatants as a fraction of the total LDH.
Figure 2 Effects of PKCδ inhibitors on human cancer stem cells. (A) PCSC and PrCSC cells at 80% confluence were exposed to rottlerin. DMSO served as vehicle control (Vehicle). After 24 and 72 hr of exposure, cell mass was evaluated by MTT assay. Control values were normalized to 100%. p values for comparison between treatments reached significance at 24 hr of exposure (p≤0.01) for both cell types, and remained significant at 72 hr. (B) PCSC and PrCSC cells at 50% confluence were exposed to rottlerin. Cytotoxicity was evaluated by LDH-release assay. Total maximal LDH release was assigned the arbitrary value of 100% (Control). p values for comparison between effects of treatments on LDH release reached significance at 24 hr of exposure (p<0.01) for both cell types, and remained significant at 72 hr. (C) Effects of PKCδ inhibitor on tumor cell clonogenic capacity. PCSC were exposed to vehicle or rottlerin (10 μM) for 6, 18, 24, or 48 hr. Viable cells were enumerated and re-plated in media without inhibitor, and colony numbers were quantitated 15 days later. p values for comparison of treatment effects on clonogenic capacity reached significance (p=0.005) at 18 hr of exposure and remained significant for all subsequent exposure times. The insert is a photograph of stained colonies on plates. (D) Structures of staurosporine, rottlerin, second-generation (KAM1) and third-generation (BJE6-106) derivatives. (E) PCSC and PrCSC cells at 50% confluence were exposed to KAM1 at the indicated concentrations. DMSO served as vehicle control (Vehicle). Cytotoxicity was evaluated by LDH-release assay, as in panel B. p values for comparison between treatment effects on LDH release reached significance at 24 hr of exposure to 2.5 μM KAM1 for PCSC cells and at 10 μM for PrCSC (p≤0.01), and remained significant at 72 hr for all concentrations of KAM1. Error bars represent SEM.

PrCSC cells = assay: Cytotoxicity (LDH release) in prostate cancer stem cells; assay type: cell-based, human
Method: as §2
Figure 2 Effects of PKCδ inhibitors on human cancer stem cells. (A) PCSC and PrCSC cells at 80% confluence were exposed to rottlerin. DMSO served as vehicle control (Vehicle). After 24 and 72 hr of exposure, cell mass was evaluated by MTT assay. Control values were normalized to 100%. p values for comparison between treatments reached significance at 24 hr of exposure (p≤0.01) for both cell types, and remained significant at 72 hr. (B) PCSC and PrCSC cells at 50% confluence were exposed to rottlerin. Cytotoxicity was evaluated by LDH-release assay. […] Viable cells were enumerated and re-plated in media without inhibitor, and colony numbers were quantitated 15 days later. p values for comparison of treatment effects on clonogenic capacity reached significance (p=0.005) at 18 hr of exposure and remained significant for all subsequent exposure times. […] Cytotoxicity was evaluated by LDH-release assay, as in panel B. p values for comparison between treatment effects on LDH release reached significance at 24 hr of exposure to 2.5 μM KAM1 for PCSC cells and at 10 μM for PrCSC (p≤0.01), and remained significant at 72 hr for all concentrations of KAM1. […]

[1] = system: non-transformed cell lines; parameters: method as in PMID 21990324; details: cited from earlier work

T1 sequence (Q05655 whole entry): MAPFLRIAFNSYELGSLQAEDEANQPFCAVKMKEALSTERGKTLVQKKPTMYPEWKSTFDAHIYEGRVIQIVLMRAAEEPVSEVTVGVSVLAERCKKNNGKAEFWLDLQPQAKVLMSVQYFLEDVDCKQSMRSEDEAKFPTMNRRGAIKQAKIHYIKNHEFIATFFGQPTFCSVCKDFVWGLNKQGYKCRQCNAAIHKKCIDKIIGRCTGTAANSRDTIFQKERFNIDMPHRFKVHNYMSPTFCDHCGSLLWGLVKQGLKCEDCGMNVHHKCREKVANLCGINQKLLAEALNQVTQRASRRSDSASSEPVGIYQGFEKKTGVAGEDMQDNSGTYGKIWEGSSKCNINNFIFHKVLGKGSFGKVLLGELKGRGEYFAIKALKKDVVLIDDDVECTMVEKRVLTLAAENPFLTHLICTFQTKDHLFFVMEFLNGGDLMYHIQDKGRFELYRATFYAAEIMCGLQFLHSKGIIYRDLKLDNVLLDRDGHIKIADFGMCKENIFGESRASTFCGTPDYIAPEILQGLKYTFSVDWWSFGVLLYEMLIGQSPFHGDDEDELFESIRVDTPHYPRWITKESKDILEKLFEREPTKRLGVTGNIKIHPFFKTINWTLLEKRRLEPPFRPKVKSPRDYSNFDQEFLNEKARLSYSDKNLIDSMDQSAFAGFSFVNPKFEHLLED

- IC50 (recombinant PKCδ): 2 µM
- IC50 (recombinant PKCα): 157 µM
Compound: CC1(C)C=Cc2cc(CCn3c4ccccc4c4ccccc43)cc(C(=O)/C=C/c3ccccc3)c2O1 [KAM1]
- lowest concentration inducing cytotoxicity (LDH release) in PCSC (PCSC cells): 2.5 µM
- concentration at which LDH release reached significance in PCSC (PCSC cells; 24 hr of exposure, p≤0.01): 2.5 µM
- lowest concentration inducing cytotoxicity (LDH release) in PrCSC (PrCSC cells): 5 µM
- concentration at which LDH release reached significance in PrCSC (PrCSC cells; 24 hr of exposure, p≤0.01): 10 µM
- cytotoxicity in non-transformed cell lines [1]: not producing cytotoxicity
